Data taken from US7592168B2, “Cephalosporin C acylase mutant and method for preparing 7-ACA using same” (Sandoz AG, priority 2003, dated 2009).
Substitutions are numbered along the chain they refer to.

Assays:
Type in all cases: biochemical
[1] = molecular target: T1, Pseudomonas sp. SE83 CPC acylase AcyII, wild type, SEQ ID NO: 2 (alpha-subunit SEQ ID NO: 4, beta-subunit SEQ ID NO: 5) (Pseudomonas sp., UniProt P15558); assay: End-product inhibition by 7-ACA (inhibition constant), wild-type CPC acylase; settings: end-product inhibition of CPC conversion; pH 8.5
T1 construct: made in house; host or cells: E. coli MC1061
T1 sequence (P15558 2-230): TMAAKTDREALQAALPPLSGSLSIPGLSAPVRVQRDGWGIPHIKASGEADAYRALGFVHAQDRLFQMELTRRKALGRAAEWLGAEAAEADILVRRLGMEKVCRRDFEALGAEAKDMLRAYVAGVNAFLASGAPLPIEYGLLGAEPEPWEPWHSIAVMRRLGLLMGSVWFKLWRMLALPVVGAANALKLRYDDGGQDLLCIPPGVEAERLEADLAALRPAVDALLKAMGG
T1 sequence (P15558 240-774): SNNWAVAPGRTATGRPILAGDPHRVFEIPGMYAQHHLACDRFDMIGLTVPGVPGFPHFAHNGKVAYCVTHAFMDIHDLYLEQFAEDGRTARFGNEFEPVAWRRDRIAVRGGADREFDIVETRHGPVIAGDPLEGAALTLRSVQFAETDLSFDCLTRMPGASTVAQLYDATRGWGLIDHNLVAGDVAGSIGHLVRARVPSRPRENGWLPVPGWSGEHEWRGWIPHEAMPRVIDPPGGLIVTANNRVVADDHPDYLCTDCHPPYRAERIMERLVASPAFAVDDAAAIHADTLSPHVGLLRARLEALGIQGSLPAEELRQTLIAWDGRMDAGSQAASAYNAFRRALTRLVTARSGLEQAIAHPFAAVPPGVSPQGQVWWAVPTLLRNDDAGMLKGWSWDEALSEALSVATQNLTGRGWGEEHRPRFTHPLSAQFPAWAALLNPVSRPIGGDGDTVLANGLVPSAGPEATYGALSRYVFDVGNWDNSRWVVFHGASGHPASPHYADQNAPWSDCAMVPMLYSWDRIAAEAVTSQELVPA
Description: (§1) The enzyme activity of CPC acylase mutant to CPC was measured according to the method described by Park et al. with minor modifications as follows (Park, et al., Kor. J. Appl. Microbiol. Biotechnol. 23: 559-564, 1995). A substrate solution was prepared by dissolving CPC (purity 74.2%; CJ Corp., Korea) in 0.1 M Tris-HCl buffer solution (pH 8.0) at a concentration of 20 mg/ml and adjusting pH to 8 with 1 N NaOH. 20 μl of the CPC solution was mixed with 20 μl of the crude enzyme solution prepared above and the reaction mixture was incubated at 37° C. for 5 min. After the reaction, the mixture (200 μl) of 50 mM NaOH and 20% glacial acetic acid (1:2) was added thereto to stop the reaction. 200 μl of the supernatant recovered from the reaction mixture by centrifugation was mixed with 40 μl of 0.5% (w/v) PDAB (p-dimethylaminobenzaldehyde; Sigma, USA) dissolved in a methanol and the reaction mixture was incubated at 37° C. for 10 min. After the reaction, the absorbance of reaction mixture was measured at 415 nm and quantified by comparing with a calibration curve of standard material. […] Meanwhile, the specific activity of CPC acylase mutant for CPC was determined by measuring the amount of protein remaining in the enzyme solution according to the method described by Bradford (Bradford, M., Anal. Biochem. 72: 248-254, 1976) and representing it as an active unit corresponding to 1 mg of protein. […]

[2] = molecular target: T2, Pseudomonas sp. SE83 CPC acylase AcyII sixfold mutant S12, V121αA/G139αS/F58βN/I75βT/I176βV/S471βC (alpha-subunit SEQ ID NO: 7, beta-subunit SEQ ID NO: 8) (Pseudomonas sp., UniProt P15558, F297N/G140S/I314T/I415V/S710C/V122A); assay: End-product inhibition by 7-ACA (inhibition constant), S12 sixfold mutant; settings: end-product inhibition of CPC conversion; purified enzyme; pH 8.5
T2 construct: made in house; host or cells: E. coli MC1061
T2 sequence (P15558 2-230 V122A/G140S): T1 sequence (P15558 2-230) with V121A, G139S
T2 sequence (P15558 240-774 F297N/I314T/I415V/S710C): T1 sequence (P15558 240-774) with F58N, I75T, I176V, S471C
Description: as §1

[3] = molecular target: T3, Pseudomonas sp. SE83 CPC acylase AcyII fivefold mutant F169αY/M31βL/F58βM/H70βS/I176βV (mI176) (Pseudomonas sp., UniProt P15558, F170Y/F297M/H309S/I415V/M270L); assay: CPC hydrolysis kinetics (Lineweaver-Burk plot), fivefold mutant; settings: substrate CPC; purified enzyme; 0.1 M Tris-HCl pH 8.0, 37° C.; Lineweaver-Burk plot
T3 construct: made in house; host or cells: E. coli MC1061
T3 sequence (P15558 240-774 M270L/F297M/H309S/I415V): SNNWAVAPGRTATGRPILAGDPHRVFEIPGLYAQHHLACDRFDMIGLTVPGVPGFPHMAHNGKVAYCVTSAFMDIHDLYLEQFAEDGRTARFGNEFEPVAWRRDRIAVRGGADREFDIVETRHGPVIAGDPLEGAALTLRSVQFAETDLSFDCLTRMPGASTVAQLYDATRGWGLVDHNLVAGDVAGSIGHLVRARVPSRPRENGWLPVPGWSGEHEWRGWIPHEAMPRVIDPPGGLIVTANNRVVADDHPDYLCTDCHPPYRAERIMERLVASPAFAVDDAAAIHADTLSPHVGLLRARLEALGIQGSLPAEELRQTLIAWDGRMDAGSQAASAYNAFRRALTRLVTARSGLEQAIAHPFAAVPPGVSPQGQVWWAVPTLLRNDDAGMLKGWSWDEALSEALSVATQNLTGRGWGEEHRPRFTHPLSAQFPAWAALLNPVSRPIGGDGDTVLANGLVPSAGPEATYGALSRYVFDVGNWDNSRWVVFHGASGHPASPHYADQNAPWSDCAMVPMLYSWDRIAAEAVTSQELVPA
T3 sequence (P15558 2-230 F170Y): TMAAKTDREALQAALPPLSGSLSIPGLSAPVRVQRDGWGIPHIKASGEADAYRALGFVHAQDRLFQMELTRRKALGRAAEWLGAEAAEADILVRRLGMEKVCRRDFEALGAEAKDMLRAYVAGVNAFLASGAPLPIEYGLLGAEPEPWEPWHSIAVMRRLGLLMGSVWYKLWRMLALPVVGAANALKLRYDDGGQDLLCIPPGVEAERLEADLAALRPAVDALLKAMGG
Description: (§2) The enzyme activity of CPC acylase mutant to CPC was measured according to the method described by Park et al. with minor modifications as follows (Park, et al., Kor. J. Appl. Microbiol. Biotechnol. 23: 559-564, 1995). A substrate solution was prepared by dissolving CPC (purity 74.2%; CJ Corp., Korea) in 0.1 M Tris-HCl buffer solution (pH 8.0) at a concentration of 20 mg/ml and adjusting pH to 8 with 1 N NaOH. 20 μl of the CPC solution was mixed with 20 μl of the crude enzyme solution prepared above and the reaction mixture was incubated at 37° C. for 5 min. After the reaction, the mixture (200 μl) of 50 mM NaOH and 20% glacial acetic acid (1:2) was added thereto to stop the reaction. 200 μl of the supernatant recovered from the reaction mixture by centrifugation was mixed with 40 μl of 0.5% (w/v) PDAB (p-dimethylaminobenzaldehyde; Sigma, USA) dissolved in a methanol and the reaction mixture was incubated at 37° C. for 10 min. After the reaction, the absorbance of reaction mixture was measured at 415 nm and quantified by comparing with a calibration curve of standard material. At this time, 1 unit has been defined as the amount of enzyme capable to produce 1 μmole of 7-ACA from CPC per minute. Meanwhile, the specific activity of CPC acylase mutant for CPC was determined by measuring the amount of protein remaining in the enzyme solution according to the method described by Bradford (Bradford, M., Anal. Biochem. 72: 248-254, 1976) and representing it as an active unit corresponding to 1 mg of protein. The reactivity of CPC acylase mutant to CPC was determined by the following steps of adding the same amount of protein to a reaction mixture, performing an enzyme reaction for a fixed time, measuring the amount of 7-ACA produced in the reaction mixture, and representing it as a relative value. The end-product inhibition by 7-ACA was determined by adding a protein corresponding to the same active unit to a reaction mixture, performing an enzyme reaction for a fixed time; measuring the amount of 7-ACA produced in the reaction mixture, and representing it as a relative value.
(§3) E. coli MC1061 transformant containing the recombinant plasmid introduced with the wild-type or the inventive CPC acylase mutant gene was cultivated in 1 l of a terrific broth (1.2% Bacto-Trypton, 2.4% Yeast Extract, 0.4% glycerol, […]) containing […] of chloramphenicol at 30° C. for 16 hr to obtain a pre-culture solution. 10 ml of the pre-culture solution was inoculated into the same medium, and then, cultured at 25° C., 200 rpm for 48 hr with vigorous shaking. The culture solution was subjected to centrifugation at 4° C., 8,000 rpm for 10 min to separate a precipitate, and the precipitate washed twice with 20 mM Tris-HCl buffer solution (pH 8.0). […]

[4] = tested on: Pseudomonas sp. SE83 CPC acylase AcyII fivefold mutant F169αY/M31βL/F58βM/H70βS/I176βV (mI176); assay: as above; settings: substrate CPC; fivefold mutant vs wild-type
Description: as §2, §3

SMILES | Ki [1] [µM] | Ki [2] [µM] | Kcat [3] [s⁻¹] | Kcat/Km [3] [M⁻¹ s⁻¹] | higher reaction efficiency to CPC as compared with the wild-type enzyme [4] | lower Km value as compared with the wild-type enzyme [4]
CC(=O)OCC1=C(C(=O)O)N2C(=O)[C@@H](N)[C@H]2SC1 [7-ACA, 7-aminoacephalosporanic acid] | 400 | 1900 | – | – | – | –
CC(=O)OCC1=C(C(=O)O)N2C(=O)[C@@H](NC(=O)CCC[C@@H](N)C(=O)O)[C@H]2SC1 [CPC, Cephalosporin C] | – | – | 2.4 | 300 | about 15 fold | about 6.3 fold
